According to patent US9644019B2, “Compounds for treating cardiac damage after ischaemia/reperfusion” (priority 2010, dated 2017):

Assays:
[1] = tested on: EMMPRIN-induced MMP-9 expression; test: EMMPRIN-induced MMP-9 expression in MAEC cells (anti-MMP-9 immunodetection); assay type: cell-based, mouse; settings: 100 μM DETA-NO, AP-9 peptide 0.08 mg/ml overnight, vs PBS
Description: MAEC cells were incubated with 100 μM of DETA-NO to induce EMMPRIN expression (B, D). MAEC cells without DETA-NO were used as a control (A, C). After 3 hours of treatment with DETA-NO, the MAEC cells were incubated overnight with AP-9 peptide (0.08 mg/ml) (C, D) or with PBS (A, B). The MAEC cells were fixed with 4% PFA, and MMP-9 expression was detected using an anti-MMP-9 antibody (1:1000). […] The cores were stained with DAPI.
Likewise, to ascertain if AP-9 peptide inhibited EMMPRIN-induced MMP-9 expression, MAEC cells were incubated with 100 μM of DETA-NO to induce EMMPRIN expression. After 3 hours of treatment with DETA-NO, the MAEC cells were incubated overnight with AP-9 peptide (0.08 mg/ml) or with PBS as a control without peptide. MAEC cells without DETA-NO were used as a control. Finally, the MAEC cells were fixed with 4% PFA and MMP-9 expression was detected using an anti-MMP-9 antibody (1:1000).

[2] = biological target: T1, EMMPRIN (Mus musculus, UniProt P18572); test: AP-9 peptide / EMMPRIN co-localization in MAEC cells; assay type: binding; settings: DETA-NO 100 μM overnight, 0.08 mg/ml AP-9 peptide
T1 construct: Said cells were incubated overnight with the nitric oxide donor (DETA-NO) (100 μM) to induce EMMPRIN expression; endogenous in cells; host or cells: MAEC (mouse aortic endothelial cells), fixed with 4% PFA
T1 sequence (P18572 22-273 isoform P18572-2 limits assumed): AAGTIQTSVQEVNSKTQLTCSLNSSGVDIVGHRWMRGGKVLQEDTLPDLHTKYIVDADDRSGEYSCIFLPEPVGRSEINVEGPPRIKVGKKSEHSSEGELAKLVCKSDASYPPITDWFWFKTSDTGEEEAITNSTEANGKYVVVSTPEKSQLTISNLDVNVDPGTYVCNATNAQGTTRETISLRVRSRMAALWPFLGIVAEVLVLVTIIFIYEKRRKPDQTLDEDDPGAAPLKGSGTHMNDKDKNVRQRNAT
Description: The MAEC cells were incubated overnight with the nitric oxide donor (DETA-NO) (100 μM) to induce EMMPRIN expression (right panel). The MAEC cells without DETA-NO were used as a control (left panel). The MAEC cells were fixed with 4% PFA and incubated with 0.08 mg/ml of AP-9 peptide. EMMPRIN expression was detected using an anti-EMMPRIN antibody (1:1000), observing that both signals co-localize (right panel, top right square). The cores were stained with DAPI.
MAEC cells (mouse aortic endothelial cells) were used for the in vitro assays. Said cells were incubated overnight with the nitric oxide donor (DETA-NO) (100 μM) to induce EMMPRIN expression. The MAEC cells without DETA-NO were used as a control. The MAEC cells were fixed with 4% PFA and incubated with 0.08 mg/ml of AP-9 peptide. EMMPRIN expression was subsequently detected using an anti-EMMPRIN antibody (1:1000).

binding to EMMPRIN (co-localization of signals) [2]: binds specifically
Sequence: YKLPGHHHHYRP (SEQ ID NO: 3) [AP-9 peptide, EMMPRIN antagonist peptide described in the literature]
EMMPRIN-induced MMP-9 expression [1]: inhibition
